Read-outs that look alike come from different tables or passages of the source.
System: P. aeruginosa isolates
Experiment: Phase 2 study: MIC of P. aeruginosa isolates to levofloxacin
Type: cell-based
Settings: Pseudomonas aeruginosa
Protocol: Efficacy was evaluated by microbiologic assessment of sputum samples, time to need for anti-pseudomonal antimicrobials, the Cystic Fibrosis Questionaire-Revised (CFQ-R), and pulmonary function tests. […] Pair-wise comparisons between all the treatment arms were conducted as secondary analyses.

## C[C@H]1COc2c(N3CCN(C)CC3)c(F)cc3c(=O)c(C(=O)O)cn1c23 [Levofloxacin, levofloxacin]
672 h, MITT, combined 240 mg QD and BID, Day 28, read-out: Highest MIC, MIC90
  MIC90: 32 µg/mL
672 h, MITT, combined 240 mg QD and BID, Day 28, read-out: MIC50 (all organisms)
  MIC50: 4 µg/mL
672 h, MITT, combined 240 mg QD and BID, Day 28, read-out: MIC90 (all organisms)
  MIC90: 16 µg/mL
672 h, Table 14, EE, 120 mg QD, Day 28, read-out: MIC50 (all organisms)
  MIC50: 8 µg/mL
672 h, Table 14, EE, 120 mg QD, Day 28, read-out: MIC90 (all organisms)
  MIC90: 32 µg/mL
672 h, Table 14, EE, 240 mg BID, Day 28, read-out: MIC50 (all organisms)
  MIC50: 8 µg/mL
672 h, Table 14, EE, 240 mg BID, Day 28, read-out: MIC90 (all organisms)
  MIC90: 32 µg/mL
672 h, Table 14, EE, 240 mg QD, Day 28, read-out: MIC50 (all organisms)
  MIC50: 8 µg/mL
672 h, Table 14, EE, 240 mg QD, Day 28, read-out: MIC90 (all organisms)
  MIC90: 16 µg/mL
672 h, Table 14, EE, combined 240 mg QD and BID, Day 28, read-out: MIC50 (all organisms)
  MIC50: 8 µg/mL
672 h, Table 14, EE, combined 240 mg QD and BID, Day 28, read-out: MIC90 (all organisms)
  MIC90: 32 µg/mL
672 h, read-out: Highest MIC to levofloxacin, mean (SD), MITT, 120 mg QD, Day 28
  MIC: 12.7 µg/mL
672 h, read-out: Highest MIC to levofloxacin, mean (SD), MITT, 240 mg BID, Day 28
  MIC: 17.9 µg/mL
672 h, read-out: Highest MIC to levofloxacin, mean (SD), MITT, 240 mg QD, Day 28
  MIC: 9.17 µg/mL
672 h, read-out: Highest MIC to levofloxacin, mean (SD), MITT, combined 240 mg QD and BID, Day 28
  MIC: 13.5 µg/mL
672 h, read-out: MIC to levofloxacin (all organisms), mean (SD), EE, 120 mg QD, Day 28
  MIC: 8.9 µg/mL
672 h, read-out: MIC to levofloxacin (all organisms), mean (SD), EE, 240 mg BID, Day 28
  MIC: 10.1 µg/mL
672 h, read-out: MIC to levofloxacin (all organisms), mean (SD), EE, 240 mg QD, Day 28
  MIC: 6 µg/mL
672 h, read-out: MIC to levofloxacin (all organisms), mean (SD), EE, combined 240 mg QD and BID, Day 28
  MIC: 8 µg/mL
672 h, read-out: MIC to levofloxacin (all organisms), mean (SD), MITT, 120 mg QD, Day 28
  MIC: 8.8 µg/mL
672 h, read-out: MIC to levofloxacin (all organisms), mean (SD), MITT, 240 mg BID, Day 28
  MIC: 9.9 µg/mL
672 h, read-out: MIC to levofloxacin (all organisms), mean (SD), MITT, 240 mg QD, Day 28
  MIC: 5.9 µg/mL
672 h, read-out: MIC to levofloxacin (all organisms), mean (SD), MITT, combined 240 mg QD and BID, Day 28
  MIC: 7.9 µg/mL
672 h, read-out: MIC to levofloxacin (all organisms), mean (SD), Table 14, EE, 120 mg QD, Day 28
  MIC: 12.9 µg/mL
672 h, read-out: MIC to levofloxacin (all organisms), mean (SD), Table 14, EE, 240 mg BID, Day 28
  MIC: 18 µg/mL
672 h, read-out: MIC to levofloxacin (all organisms), mean (SD), Table 14, EE, 240 mg QD, Day 28
  MIC: 9.42 µg/mL
672 h, read-out: MIC to levofloxacin (all organisms), mean (SD), Table 14, EE, combined 240 mg QD and BID, Day 28
  MIC: 13.6 µg/mL
EE and MITT, 120 mg QD, baseline, read-out: MIC50 for P. aeruginosa isolates
  MIC50: 8 µg/mL
EE and MITT, 120 mg QD, baseline, read-out: MIC90 for P. aeruginosa isolates
  MIC90: 32 µg/mL
EE and MITT, 240 mg BID, baseline, read-out: MIC50 for P. aeruginosa isolates
  MIC50: 6 µg/mL
EE and MITT, 240 mg BID, baseline, read-out: MIC90 for P. aeruginosa isolates
  MIC90: 32 µg/mL
EE and MITT, 240 mg QD, baseline, read-out: MIC50 for P. aeruginosa isolates
  MIC50: 4 µg/mL
EE and MITT, 240 mg QD, baseline, read-out: MIC90 for P. aeruginosa isolates
  MIC90: 32 µg/mL
All patients, baseline (n=592 isolates), read-out: Median baseline MIC of all isolates
  MIC: 4 µg/mL
read-out: Baseline MIC90 of all isolates
  MIC90: 16 µg/mL
read-out: Highest MIC to levofloxacin, mean (SD), MITT, 120 mg QD, Day 1
  MIC: 14.3 µg/mL
read-out: Highest MIC to levofloxacin, mean (SD), MITT, 240 mg BID, Day 1
  MIC: 11.4 µg/mL
read-out: Highest MIC to levofloxacin, mean (SD), MITT, 240 mg QD, Day 1
  MIC: 9.06 µg/mL
read-out: Highest MIC to levofloxacin, mean (SD), MITT, combined 240 mg QD and BID, Day 1
  MIC: 10.2 µg/mL
read-out: MIC to levofloxacin (all organisms), mean (SD), EE, 120 mg QD, Day 1
  MIC: 11.5 µg/mL
read-out: MIC to levofloxacin (all organisms), mean (SD), EE, 240 mg BID, Day 1
  MIC: 6.8 µg/mL
read-out: MIC to levofloxacin (all organisms), mean (SD), EE, 240 mg QD, Day 1
  MIC: 6.3 µg/mL
read-out: MIC to levofloxacin (all organisms), mean (SD), EE, combined 240 mg QD and BID, Day 1
  MIC: 6.5 µg/mL
read-out: MIC to levofloxacin (all organisms), mean (SD), MITT, 120 mg QD, Day 1
  MIC: 11 µg/mL
read-out: MIC to levofloxacin (all organisms), mean (SD), MITT, 240 mg BID, Day 1
  MIC: 6.8 µg/mL
read-out: MIC to levofloxacin (all organisms), mean (SD), MITT, 240 mg QD, Day 1
  MIC: 6.1 µg/mL
read-out: MIC to levofloxacin (all organisms), mean (SD), MITT, combined 240 mg QD and BID, Day 1
  MIC: 6.4 µg/mL
read-out: MIC to levofloxacin (all organisms), mean (SD), Table 14, EE, 120 mg QD, Day 1
  MIC: 15 µg/mL
read-out: MIC to levofloxacin (all organisms), mean (SD), Table 14, EE, 240 mg BID, Day 1
  MIC: 11.6 µg/mL
read-out: MIC to levofloxacin (all organisms), mean (SD), Table 14, EE, 240 mg QD, Day 1
  MIC: 9.35 µg/mL
read-out: MIC to levofloxacin (all organisms), mean (SD), Table 14, EE, combined 240 mg QD and BID, Day 1
  MIC: 10.5 µg/mL

Reference: patent publication US10792289B2 (Horizon Orphan LLC, priority 2009, dated 2020)
